In brackets after ≈: the same amount, converted by molar mass. Numbered stars: 1 amine (or outer) side, 2 acyl side, 3 side chain; on linkers, the order of the positions; unused ones are H or OH. Square brackets hold non-standard residues; d marks the D form. Peptide text beside a SMILES is read from it. MeBmt = C/C=C/C[C@@H](C)[C@@H](O)[C@H](NC)C(=O)O; NMeLeu(4-OH) = CN[C@@H](CC(C)(C)O)C(=O)O; X2 = CN(C(Sc1ccccn1)C(=O)[*:2])[*:1]; NMeL = CN[C@@H](CC(C)C)C(=O)O; NMeV = CN[C@H](C(=O)O)C(C)C; Abu = CC[C@H](N)C(=O)O

Here are results for 8 molecules from patent publication US6583265B1, “Cyclosporins” (C-Chem AG, priority 1998, dated 2003).

Test [1] is described as follows: Antiinflammatory activity, adjuvent arthritis test (Pearson). The class given is in vivo. The settings on record: oral, solutions in olive oil and tween 80. As for the experimental part:
The antiinflammatory activity of test compounds was determined by the adjuvent arthritis test described by Pearson, “Arthr. Rheum”, 1959, Vol. 2., 440. Test compounds were administered orally as solutions in olive oil and tween 80.

Another test has as its target cyclophilin (Homo sapiens, UniProt P62937). As to the kind of experiment: Test for cyclophilin binding (Fliri). The note with it: ratio to cyclosporin A. An excerpt:
To measure the affinity and inhibition of test compounds for cyclophilin, the test described by H. Fliri in “Antibiotics and Antiviral compounds”, 1993, Verlag Chemie, K.Krohn, H. A. Kirst, and H. Maag, eds., p 229-240 was used.

The test system of another test is HIV. It is filed as cell-based. The source says: The inhibitory effect of test compounds on the HIV-induced cytopathic effect on the MT4 T cell line as described by R. Pauwels in J. Virol. Methods, 1988, Vol. 20, pp 309-321 was used.

Chain of cyclophilin (P62937 whole entry): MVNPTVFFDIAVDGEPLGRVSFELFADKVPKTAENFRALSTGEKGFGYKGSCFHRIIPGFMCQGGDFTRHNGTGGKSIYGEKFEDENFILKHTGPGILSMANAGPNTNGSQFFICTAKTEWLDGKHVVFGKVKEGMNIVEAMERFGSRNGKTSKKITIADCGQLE

With `C/C=C/C[C@@H](C)[C@@H](O)[C@H]1C(=O)N[C@@H](CC)C(=O)N(C)C(Sc2ccccn2)C(=O)N(C)[C@@H](CC(C)C)C(=O)N[C@@H](C(C)C)C(=O)N(C)[C@@H](CC(C)C)C(=O)N[C@@H](C)C(=O)N[C@H](C)C(=O)N(C)[C@@H](CC(C)C)C(=O)N(C)[C@@H](CC(C)C)C(=O)N(C)[C@@H](C(C)C)C(=O)N1C` (stereo partly drawn) [Example 1, 3-(Pyridyl-2-thio)-cyclosporin] (HELM PEPTIDE1{[C/C=C/C[C@@H](C)[C@@H](O)[C@@H](C(=O)[*:2])N(C)[*:1]].[Abu].[CN(C(Sc1ccccn1)C(=O)[*:2])[*:1]].[meL].V.[meL].A.[dA].[meL].[meL].[meV]}$PEPTIDE1,PEPTIDE1,1:R1-11:R2$$$V2.0), the “ED50, dose effective in reducing the joint swelling by 50%” value in test [1] was 25 mg/kg. Also, at cyclophilin, the Relative IC50, i.e. IC50 (cyclosporin A)/IC50 (test compound) was 0.2. In addition, in the test with HIV, the IC50 worked out at 0.45 µg/mL (≈ 0.343 µM).

Regarding `C/C=C/C[C@@H](C)[C@@H](O)[C@H]1C(=O)N[C@@H](CC)C(=O)N(C)C(Sc2ccncc2)C(=O)N(C)[C@@H](CC(C)C)C(=O)N[C@@H](C(C)C)C(=O)N(C)[C@@H](CC(C)C)C(=O)N[C@@H](C)C(=O)N[C@H](C)C(=O)N(C)[C@@H](CC(C)C)C(=O)N(C)[C@@H](CC(C)C)C(=O)N(C)[C@@H](C(C)C)C(=O)N1C` (stereo partly drawn) [Example 2, 3-(Pyridyl-4-thio)-cyclosporin A] (HELM PEPTIDE1{[C/C=C/C[C@@H](C)[C@@H](O)[C@@H](C(=O)[*:2])N(C)[*:1]].[Abu].[CN(C(Sc1ccncc1)C(=O)[*:2])[*:1]].[meL].V.[meL].A.[dA].[meL].[meL].[meV]}$PEPTIDE1,PEPTIDE1,1:R1-11:R2$$$V2.0), the “ED50, dose effective in reducing the joint swelling by 50%” value in test [1] was determined as 25 mg/kg. For the same molecule, the Relative IC50, i.e. IC50 (cyclosporin A)/IC50 (test compound) on cyclophilin came to 0.2. In the test on HIV, this molecule yielded an IC50 of 1 µg/mL (≈ 0.762 µM).

Consider `C/C=C/C[C@@H](C)[C@@H](O)[C@H]1C(=O)N[C@@H](CC)C(=O)N(C)C(Sc2ccccn2)C(=O)N(C)[C@@H](CC(C)(C)O)C(=O)N[C@@H](C(C)C)C(=O)N(C)[C@@H](CC(C)C)C(=O)N[C@@H](C)C(=O)N[C@H](C)C(=O)N(C)[C@@H](CC(C)C)C(=O)N(C)[C@@H](CC(C)C)C(=O)N(C)[C@@H](C(C)C)C(=O)N1C` (stereo partly drawn) [Example 3, 3-(Pyridyl-2-thio)-4-(γ-hydroxy-methylleucine)-cyclosporin] (cyclo([MeBmt][Abu][X2][NMeLeu(4-OH)]V[NMeL]A[dA][NMeL][NMeL][NMeV])), for which, in test [1], the “ED50, dose effective in reducing the joint swelling by 50%” value is 25 mg/kg. In addition, the Relative IC50, i.e. IC50 (cyclosporin A)/IC50 (test compound) at cyclophilin came out at 0.2. Besides, the IC50 in the test with HIV amounted to 1 µg/mL (≈ 0.753 µM).

On to `C/C=C/C[C@@H](C)[C@@H](O)[C@H]1C(=O)N[C@@H](CC)C(=O)N(C)C(Sc2ccccn2)C(=O)N(C)[C@@H](C(C)C)C(=O)N[C@@H](C(C)C)C(=O)N(C)[C@@H](CC(C)C)C(=O)N[C@@H](C)C(=O)N[C@H](C)C(=O)N(C)[C@@H](CC(C)C)C(=O)N(C)[C@@H](CC(C)C)C(=O)N(C)[C@@H](C(C)C)C(=O)N1C` (stereo partly drawn) [Example 4, 3-(Pyridyl-2-thio)-4-methylvaline-cyclosporin] (HELM PEPTIDE1{[C/C=C/C[C@@H](C)[C@@H](O)[C@@H](C(=O)[*:2])N(C)[*:1]].[Abu].[CN(C(Sc1ccccn1)C(=O)[*:2])[*:1]].[meV].V.[meL].A.[dA].[meL].[meL].[meV]}$PEPTIDE1,PEPTIDE1,1:R1-11:R2$$$V2.0), for which, in test [1], the “ED50, dose effective in reducing the joint swelling by 50%” value turned out to be 25 mg/kg. The Relative IC50, i.e. IC50 (cyclosporin A)/IC50 (test compound) at cyclophilin was found to be 0.2. In the test with HIV, this molecule gave an IC50 of 1 µg/mL (≈ 0.771 µM).

On to `C/C=C/C[C@@H](C)[C@@H](O)[C@H]1C(=O)N[C@@H](CCC)C(=O)N(C)C(Sc2ccccn2)C(=O)N(C)[C@@H](CC(C)C)C(=O)N[C@@H](C(C)C)C(=O)N(C)[C@@H](CC(C)C)C(=O)N[C@@H](C)C(=O)N[C@H](C)C(=O)N(C)[C@@H](CC(C)C)C(=O)N(C)[C@@H](CC(C)C)C(=O)N(C)[C@@H](C(C)C)C(=O)N1C` (stereo partly drawn) [Example 5, 3-(Pyridyl-2-thio)-2-norvaline-cyclosporin] (HELM PEPTIDE1{[C/C=C/C[C@@H](C)[C@@H](O)[C@@H](C(=O)[*:2])N(C)[*:1]].[Nva].[CN(C(Sc1ccccn1)C(=O)[*:2])[*:1]].[meL].V.[meL].A.[dA].[meL].[meL].[meV]}$PEPTIDE1,PEPTIDE1,1:R1-11:R2$$$V2.0), for which, in test [1], the “ED50, dose effective in reducing the joint swelling by 50%” value was 25 mg/kg. Moreover, the Relative IC50, i.e. IC50 (cyclosporin A)/IC50 (test compound) at cyclophilin was found to be 0.2. The molecule also came in with an IC50 in the test on HIV of 1 µg/mL (≈ 0.754 µM).

Take `C/C=C/C[C@@H](C)[C@@H](O)[C@H]1C(=O)N[C@@H](C(C)C)C(=O)N(C)C(Sc2ccccn2)C(=O)N(C)[C@@H](CC(C)C)C(=O)N[C@@H](C(C)C)C(=O)N(C)[C@@H](CC(C)C)C(=O)N[C@@H](C)C(=O)N[C@H](C)C(=O)N(C)[C@@H](CC(C)C)C(=O)N(C)[C@@H](CC(C)C)C(=O)N(C)[C@@H](C(C)C)C(=O)N1C` (stereo partly drawn) [Example 6, 3-(Pyridyl-2-thio)-2-valine-cyclosporin] (HELM PEPTIDE1{[C/C=C/C[C@@H](C)[C@@H](O)[C@@H](C(=O)[*:2])N(C)[*:1]].V.[CN(C(Sc1ccccn1)C(=O)[*:2])[*:1]].[meL].V.[meL].A.[dA].[meL].[meL].[meV]}$PEPTIDE1,PEPTIDE1,1:R1-11:R2$$$V2.0): the “ED50, dose effective in reducing the joint swelling by 50%” value in test [1] was 25 mg/kg. Moreover, the Relative IC50, i.e. IC50 (cyclosporin A)/IC50 (test compound) at cyclophilin came out at 0.2. In the test on HIV, this molecule displayed an IC50 of 1 µg/mL (≈ 0.754 µM).

For the molecule `C/C=C/C[C@@H](C)[C@@H](O)[C@H]1C(=O)N[C@@H](CC)C(=O)N(C)C(Sc2ccccn2)C(=O)N(C)[C@@H](CC(C)C)C(=O)N[C@@H](C(C)C)C(=O)N(C)[C@@H](CC(C)C)C(=O)N[C@@H](C)C(=O)N[C@H](CO)C(=O)N(C)[C@@H](CC(C)C)C(=O)N(C)[C@@H](CC(C)C)C(=O)N(C)[C@@H](C(C)C)C(=O)N1C` (stereo partly drawn) [Example 7, 3-(Pyridyl-2-thio)-8-(D)-serine-cyclosporin] (HELM PEPTIDE1{[C/C=C/C[C@@H](C)[C@@H](O)[C@@H](C(=O)[*:2])N(C)[*:1]].[Abu].[CN(C(Sc1ccccn1)C(=O)[*:2])[*:1]].[meL].V.[meL].A.[dS].[meL].[meL].[meV]}$PEPTIDE1,PEPTIDE1,1:R1-11:R2$$$V2.0), in test [1], the “ED50, dose effective in reducing the joint swelling by 50%” value was found to be 25 mg/kg. For the same molecule, on cyclophilin, the Relative IC50, i.e. IC50 (cyclosporin A)/IC50 (test compound) is 0.2. The same molecule returned an IC50 with HIV of 1 µg/mL (≈ 0.753 µM).

On to `C/C=C/C[C@@H](C)[C@@H](O)[C@H]1C(=O)N[C@@H](CC)C(=O)N(C)C(Sc2ccccc2)C(=O)N(C)[C@@H](CC(C)C)C(=O)N[C@@H](C(C)C)C(=O)N(C)[C@@H](CC(C)C)C(=O)N[C@@H](C)C(=O)N[C@H](C)C(=O)N(C)[C@@H](CC(C)C)C(=O)N(C)[C@@H](CC(C)C)C(=O)N(C)[C@@H](C(C)C)C(=O)N1C` (stereo partly drawn) [Example 8, 3-(Phenylthio)-cyclosporin A] (HELM PEPTIDE1{[C/C=C/C[C@@H](C)[C@@H](O)[C@@H](C(=O)[*:2])N(C)[*:1]].[Abu].[CN(C(Sc1ccccc1)C(=O)[*:2])[*:1]].[meL].V.[meL].A.[dA].[meL].[meL].[meV]}$PEPTIDE1,PEPTIDE1,1:R1-11:R2$$$V2.0), for which, in test [1], the “ED50, dose effective in reducing the joint swelling by 50%” value came to 25 mg/kg. Besides, at cyclophilin, the Relative IC50, i.e. IC50 (cyclosporin A)/IC50 (test compound) worked out at 0.4. In the test on HIV, this molecule gave an IC50 of 0.5 µg/mL (≈ 0.381 µM).
